Tested on: NF-κ B activation
Test: Inhibitory activity of NF-κB activation, luciferase reporter assay under TNF-α stimulation in HepG2
Type: cell-based, human
Conditions: HepG2, TNF-α 40 ng/ml, 4 hours; for inhibition at 1 µg/mL / inhibition at 10 µg/mL: Homo sapiens, read-out: Inhibitory rate against NF-κB activation (%)
Experimental: Measurement of Inhibitory Activity of NF-κB activation
Using a transfection reagent (Effectene; QIAGEN), the human hepatoma cell strain HepG2 was transfected with a plasmid (pNF κ B-Luc Reporter Plasmid; […]) integrated with an oligonucleotide having five tandem copies of NF-κ B binding sequences([…]) on a upstream region of firefly luciferase gene(Luc) according to the QIAGEN's protocol, and the cells were incubated for 6 to 24 hours. After addition of TNF-α (40 ng/ml) in the presence or absence of a test compound, the cells were incubated for 4 hours, and intracellular luciferase activity was measured by using PicaGene LT (TOYO INK MFG Co., Ltd.) and a chemical luminescence measurement apparatus ([…]luor Plus; TECAN). The inhibitory ratio was measured as a ratio relative to the value of the luciferase activity in the absence of the test compound.

Compound	Inhibitory rate against NF-κB activation (%) (Drug concentration at 1 μg/mL)	Inhibitory rate against NF-κB activation (%) (Drug concentration at 10 μg/mL)	inhibition at 1 µg/mL (Drug concentration at 1 μg/mL)	inhibition at 10 µg/mL (Drug concentration at 10 μg/mL)
O=C(Nc1cc(C(F)(F)F)cc(C(F)(F)F)c1)c1cc(CCc2ccccc2)ccc1O [compound 24]	92.3%	98.3%	–	–
O=C(Nc1cc(C(F)(F)F)cc(C(F)(F)F)c1)c1cc(C(F)(F)F)ccc1O [compound 25]	96.4%	99.6%	–	–
O=C(Nc1cc(C(F)(F)F)cc(C(F)(F)F)c1)c1cc(C(F)(F)C(F)(F)F)ccc1O [compound 26]	93.3%	95.4%	–	–
O=C(Nc1cc(C(F)(F)F)cc(C(F)(F)F)c1)c1cc(-n2cccc2)ccc1O [compound 27]	93.8%	97.9%	–	–
O=C(Nc1cc(C(F)(F)F)cc(C(F)(F)F)c1)c1cc(-c2cccs2)ccc1O [compound 28]	79.5%	97.8%	–	–
Cc1nc(-c2ccc(O)c(C(=O)Nc3cc(C(F)(F)F)cc(C(F)(F)F)c3)c2)cs1 [compound 30, N-[3,5-Bis(trifluoromethyl)phenyl]-2-hydroxy-5-(2-methylthiazol-4-yl)benzamide]	–	–	82.1%	95.3%
O=C(Nc1cc(C(F)(F)F)cc(C(F)(F)F)c1)c1cc(-c2ccccn2)ccc1O [compound 32, N-[3,5-Bis(trifluoromethyl)phenyl]-2-hydroxy-5-(pyridin-2-yl)benzamide]	–	–	90.4%	99%
COc1ccc(O)c(C(=O)Nc2cc(C(F)(F)F)cc(C(F)(F)F)c2)c1 [compound 33]	30.7%	97.0%	–	–
CC(C)C(=O)c1ccc(O)c(C(=O)Nc2cc(C(F)(F)F)cc(C(F)(F)F)c2)c1 [compound 34, N-[3,5-Bis(trifluoromethyl)phenyl]-2-hydroxy-5-isobutyrylbenzamide]	–	–	90.7%	98.7%
COC(=O)c1ccc(O)c(C(=O)Nc2cc(C(F)(F)F)cc(C(F)(F)F)c2)c1 [compound 35, N-[3,5-bis(trifluoromethyl)phenyl]-4-hydroxyisophthalamic acid methyl ester]	–	–	88.2%	96.4%
O=C(Nc1cc(C(F)(F)F)cc(C(F)(F)F)c1)c1ccc(O)c(C(=O)Nc2cc(C(F)(F)F)cc(C(F)(F)F)c2)c1 [compound 37]	–	94.5%	–	–
CN(C)C(=O)c1ccc(O)c(C(=O)Nc2cc(C(F)(F)F)cc(C(F)(F)F)c2)c1 [compound 38, N^3-[3,5-bis(trifluoromethyl)phenyl]-4-hydroxy-N^1,N^1-dimethylisophthalamide]	–	–	16%	87.1%
O=C(Nc1cc(C(F)(F)F)cc(C(F)(F)F)c1)c1cc(C(=O)N2CCCCC2)ccc1O [compound 39, N-[3,5-Bis(trifluoromethyl)phenyl]-2-hydroxy-5-(piperidine-1-carbonyl)benzamide]	–	–	23.7%	82.2%
CN(C)S(=O)(=O)c1ccc(O)c(C(=O)Nc2cc(C(F)(F)F)cc(C(F)(F)F)c2)c1 [compound 41, N-[3,5-Bis(trifluoromethyl)phenyl]-5-dimethylsufamoyl-2-hydroxybenzamide]	42.2%	95.9%	–	–
O=C(Nc1cc(C(F)(F)F)cc(C(F)(F)F)c1)c1cc(S(=O)(=O)n2cccc2)ccc1O [compound 42, N-[3,5-Bis(trifluoromethyl)phenyl]-2-hydroxy-5-(pyrrole-1-sulfonyl)benzamide]	–	–	84.4%	98.1%
CN(C)c1ccc(O)c(C(=O)Nc2cc(C(F)(F)F)cc(C(F)(F)F)c2)c1 [compound 44]	–	67.5%	–	–
O=C(Nc1ccc(O)c(C(=O)Nc2cc(C(F)(F)F)cc(C(F)(F)F)c2)c1)c1ccccc1 [compound 45]	–	63.4%	–	–
O=C(Nc1ccccc1)Nc1ccc(O)c(C(=O)Nc2cc(C(F)(F)F)cc(C(F)(F)F)c2)c1 [compound 46]	20.5%	88.4%	–	–
O=C(Nc1cc(C(F)(F)F)cc(C(F)(F)F)c1)c1cc(NC(=S)Nc2ccccc2)ccc1O [compound 47]	51.8%	97.2%	–	–
O=C(Nc1cc(C(F)(F)F)cc(C(F)(F)F)c1)c1cc(N=Nc2ccc([N+](=O)[O-])cc2)ccc1O [compound 48]	96.2%	98.7%	–	–
O=C(Nc1cc(C(F)(F)F)cc(C(F)(F)F)c1)c1cc(N=Nc2ccc(S(=O)(=O)Nc3ccccn3)cc2)ccc1O [compound 49]	19.4%	89.1%	–	–
Cc1ccc(C(=O)Nc2cc(C(F)(F)F)cc(C(F)(F)F)c2)c(O)c1 [compound 53]	93.3%	94.5%	–	–

Compound	Inhibitory rate against NF-κB activation (%) (Drug concentration at 1 μg/mL)	Inhibitory rate against NF-κB activation (%) (Drug concentration at 10 μg/mL)	inhibition at 1 µg/mL (Drug concentration at 1 μg/mL)	inhibition at 10 µg/mL (Drug concentration at 10 μg/mL)
O=C(Nc1cc(C(F)(F)F)cc(C(F)(F)F)c1)c1cc(Br)c(O)cc1O [compound 54]	–	86.5%	–	–
O=C(Nc1cc(C(F)(F)F)cc(C(F)(F)F)c1)c1ccc(O)cc1O [compound 55]	10.8%	88.6%	–	–
O=C(Nc1cc(C(F)(F)F)cc(C(F)(F)F)c1)c1cccc(O)c1O [compound 57]	–	91.9%	–	–
Cc1cccc(C(=O)Nc2cc(C(F)(F)F)cc(C(F)(F)F)c2)c1O [compound 58, N-[3,5-bis(trifluoromethyl)phenyl]-2-hydroxy-3-methylbenzamide]	–	–	88.2%	95%
COc1cccc(C(=O)Nc2cc(C(F)(F)F)cc(C(F)(F)F)c2)c1O [compound 59]	41.9%	94.7%	–	–
CC(C)(C)CC(C)(C)c1ccc(O)c(C(=O)Nc2cc(C(F)(F)F)cc(C(F)(F)F)c2)c1 [compound 60]	94.0%	99.1%	–	–
O=C(Nc1cc(C(F)(F)F)cc(C(F)(F)F)c1)c1c(O)c(Cl)cc(Cl)c1Cl [compound 61]	95.1%	97.2%	–	–
CC(C)(C)c1cc(C(=O)Nc2cc(C(F)(F)F)cc(C(F)(F)F)c2)c(O)c(C(C)(C)C)c1 [compound 62]	37.0%	86.9%	–	–
O=C(Nc1cc(C(F)(F)F)cc(C(F)(F)F)c1)c1cccc(Cl)c1O [compound 64]	84.9%	94.1%	–	–
COc1ccc(C(=O)Nc2cc(C(F)(F)F)cc(C(F)(F)F)c2)c(O)c1 [compound 65]	83.3%	89.8%	–	–
O=C(Nc1cc(C(F)(F)F)cc(C(F)(F)F)c1)c1cc2ccccc2cc1O [compound 72]	94.6%	95.0%	–	–
O=C(Nc1cc(C(F)(F)F)cc(C(F)(F)F)c1)c1scc(Br)c1O [compound 74, 4-Bromo-3-hydroxy-N-[3,5-bis(trifluoromethyl)phenyl]thiophene-2-carboxamide]	–	–	64%	97.5%
O=C(Nc1cc(C(F)(F)F)cc(C(F)(F)F)c1)c1nc2ccccc2nc1O [compound 80]	46.3%	73.0%	–	–
O=C(Nc1cc(C(F)(F)F)ccc1C(F)(F)F)c1cc(Cl)ccc1O [compound 81, N-[2,5-bis(trifluoromethyl)phenyl]-5-chloro-2-hydroxybenzamide]	–	–	95%	96.3%
CC(=O)Oc1ccc(Cl)cc1C(=O)Nc1cc(C(F)(F)F)ccc1C(F)(F)F [compound 82]	94.0%	96.8%	–	–
O=C(Nc1cc(C(F)(F)F)ccc1C(F)(F)F)c1cc(Br)ccc1O [compound 83]	95.7%	98.3%	–	–
Cc1ccc(O)c(C(=O)Nc2cc(C(F)(F)F)ccc2C(F)(F)F)c1 [compound 84]	92.6%	96.6%	–	–
O=C(Nc1cc(F)cc(C(F)(F)F)c1)c1cc(Cl)ccc1O [compound 85]	94.7%	98.9%	–	–
O=C(Nc1cc(Br)cc(C(F)(F)F)c1)c1cc(Br)ccc1O [compound 86]	96.7%	98.7%	–	–
O=C(Nc1cc(C(F)(F)F)ccc1F)c1cc(Cl)ccc1O [compound 87]	93.1%	95.9%	–	–
O=C(Nc1cc(C(F)(F)F)ccc1Cl)c1cc(Cl)ccc1O [compound 88, 5-chloro-N-[2-chloro-5-(trifluoromethyl)phenyl]-2-hydroxybenzamide]	–	–	94.8%	97.1%
CC(=O)Oc1ccc(Cl)cc1C(=O)Nc1cc(C(F)(F)F)ccc1Cl [compound 89]	96.7%	97.4%	–	–
